Measurements published in patent US20260146062A1, “COMPOUNDS AND METHODS FOR TREATING DISEASES CAUSED BY VIRUSES AND BACTERIA” (The Trustees of Indiana University, priority 2022, published 2026).

System: SARS-CoV2 virus
Assay: Inhibition of Viral Replication (plaque count)
Assay type: cell-based
Conditions: with increased concentration of inhibitor

CC(C)C[C@H](NC(=O)c1cc2ccccc2[nH]1)C(=O)NC(C=O)Cc1ccc(F)cc1 (stereo partly shown) [Compound 112]
inhibition ability (FIG. 6): increased inhibition ability of Compound No. 112 with increased concentration
